The values that follow come from US20090036387A1, “NOVEL CHEMICAL ENTITIES AFFECTING NEUROBLASTOMA TUMOR-INITIATING CELLS” (The Hospital for Sick Children, priority 2005, published 2009).

The assay concerns NB12 tumor-initiating cells. Put plainly: IC50 determination, Alamar Blue cell survival/growth assay. The assay is classed as cell-based, human. On the procedure:
FIG. 4A-4E, according to one embodiment of the invention, presents the IC50 values that were determined for the 64 selected candidate compounds. […] Tumor-initiating cells and normal cells were treated with 10 serial dilutions of compounds (5 μM to 9 nM). […] (FS90=normal cells; NB12=tumor-initiating cells).
FIG. 6A-6FF, according to one embodiment of the invention, presents IC50 values for 32 selected compounds from the LOPAC and Prestwick collections. Tumor-initiating cells (NB12) and normal cells (FS90) were treated with 10 serial dilutions of compounds ranging from 5 μM to 9 nM. Cell survival/growth was assayed using Alamar Blue and the percentage of control Alamar Blue signal was plotted versus log[compound] nM. IC50 values for NB12 are given above each plot.
FIG. 7A-7FF, according to one embodiment of the invention, represents IC50 values determined for 32 selected compounds from the LOPAC, Prestwick, and Spectrum collections. Tumor-initiating cells (NB12) and normal cells (FS90) were treated with 10 serial dilutions of compounds ranging from 5 μM to 9 nM. Cell survival/growth was assayed using Alamar Blue and the percentage of control Alamar Blue signal was plotted versus log[compound] nM (FS90 in dashed line, NB12 in bolded line). IC50 values for NB12 and FS90 are given beside each plot.
To identify compounds that suppress the growth and survival of neuroblastoma (NB) tumor-initiating cells and not nontransformed normal cells (SKPs), a cell-based assay was established and used in which NB tumor-initiating cells from a multiple relapse NB patient (NB12, passage 6-17) and normal SKPs (FS90, passage 2-5) were tested in parallel to detect specific alterations of cell viability/proliferation. For each cell type, cells were passaged 5 days prior to screening. Three thousand (3000) cells in 100 µL SKPs growth media (B27, bFGF, EGF, P/S, fungizone in DMEM:F12 with 50% hFS conditioned media) were robotically plated in uncoated 96 well plates and treated with test compound for 30 hours, prior to a 24 hour incubation in the presence of Alamar Blue and subsequent fluorometric reading.
Thirty-two (32) compounds were selected for IC50 determinations using FS90, FS105, and NB12. IC50 for the remaining compounds of interest will be tested at a later date (in combination with hits from additional libraries).

The mark [1] stands for this setting: Homo sapiens, NB12, 10 serial dilutions 5 μM to 9 nM, Alamar Blue, read-out: NB12 IC50.
[2] abbreviates: NB12, 10 serial dilutions 5 μM to 9 nM, Alamar Blue, read-out: NB12 IC50.
The mark [3] stands for this setting: Homo sapiens, read-out: NB12 IC50 (nM).

Counter-ions that a name gives are not always drawn. Like-named read-outs stand apart in the source and are kept apart here.

For `CC[C@@]1(O)C[C@H](O[C@H]2C[C@H](N(C)C)[C@H](O)[C@H](C)O2)c2c(cc3c(c2O)C(=O)c2c(O)cccc2C3=O)[C@H]1C(=O)OC` [AKLAVINE HYDROCHLORIDE], the half-inhibitory concentration (IC50) under setting [1] amounted to 778 nM. As to `COc1cc(NS(C)(=O)=O)ccc1Nc1c2ccccc2nc2ccccc12` [AMSACRINE HYDROCHLORIDE], the 50% inhibitory concentration (IC50) under setting [1] was 1210 nM. For `CCN(CC)Cc1cc(Nc2ccnc3cc(Cl)ccc23)ccc1O` [Amodiaquin dihydrochloride dihydrate], the IC50 under setting [1] came to 790 nM. In the case of `N=c1ccn2c(n1)O[C@H]1[C@H](O)[C@@H](CO)O[C@H]12` [Ancitabine hydrochloride], the IC50 under setting [1] amounted to 520 nM. Consider `Nc1nc(O)c2[nH]nnc2n1` [Azaguanine-8], for which the half-inhibitory concentration (IC50) under setting [2] came to 331 nM. On to `CC(C)CCC[C@@H](C)[C@H]1CC[C@H]2[C@@H]3C[C@@H](O)[C@@]4(O)C[C@@H](O)CC[C@]4(C)[C@H]3CC[C@]12C` [CHOLESTAN-3beta.5alpha.6beta-TRIOL], for which, under setting [2], the IC50 was 2410 nM. With `Cc1cc(C2CCCCC2)n(O)c(=O)c1` [CICLOPIROX OLAMINE], under setting [1], the IC50 is 2050 nM. Take `C[C@@H]1O[C@@H](O[C@H]2CC[C@]3(C=O)[C@H]4CC[C@]5(C)[C@@H](C6=CC(=O)OC6)CC[C@]5(O)[C@@H]4CC[C@]3(O)C2)[C@H](O)[C@H](O)[C@H]1O` [CONVALLATOXIN]: the IC50 under setting [1] was found to be 73.2 nM. For `C=C1C(=O)O[C@H]2C[C@@H]1C(OC(C)=O)C/C(C)=C/CC/C(C)=C/CC[C@@]2(C)O` (some centres unmarked) [CRASSIN ACETATE], under setting [1], the IC50 was 1950 nM. As to `CO[C@H]1C=C[C@@]23c4cc5c(cc4CN(C[C@@H]2O)[C@H]3C1)OCO5` [CRINAMINE], under setting [2], the half-inhibitory concentration (IC50) came to 1740 nM. Regarding `CC[C@@]1(O)C(=O)OCc2c1cc1n(c2=O)Cc2cc3ccccc3nc2-1` [Camptothecine (S.+)], the IC50 under setting [2] stood at 183 nM. As for `COc1ccc2c(c[n+](C)c3c4cc5c(cc4ccc23)OCO5)c1OC` [Chelerythrine chloride], the half-maximal inhibitory concentration (IC50) under setting [1] was 2550 nM.

With `CC(C)/N=c1\cc2n(-c3ccc(Cl)cc3)c3ccccc3nc-2cc1Nc1ccc(Cl)cc1` [Clofazimine], under setting [1], the IC50 was 1420 nM. With `CC(C)=CCCC1(C)C=Cc2c(O)c3c(c(CC=C(C)C)c2O1)OC12C(=CC4CC1C(C)(C)OC2(C/C=C(/C)C(=O)O)C4O)C3=O` (centres unmarked) [DIHYD[…]], under setting [1], the concentration for half-maximal inhibition (IC50) worked out at 1690 nM. Regarding `Cc1cc(N)c2ccccc2[n+]1CCCCCCCCCC[n+]1c(C)cc(N)c2ccccc21` [Dequalinium dichloride], under setting [1], the IC50 was found to be 3620 nM. `C[C@H]1O[C@@H](O[C@H]2[C@@H](O)C[C@H](O[C@H]3[C@@H](O)C[C@H](O[C@H]4CC[C@@]5(C)[C@H](CC[C@@H]6[C@@H]5C[C@@H](O)[C@]5(C)[C@@H](C7=CC(=O)OC7)CC[C@]65O)C4)O[C@@H]3C)O[C@@H]2C)C[C@H](O)[C@@H]1O` [Digoxin]: the half-maximal inhibitory concentration (IC50) under setting [3] turned out to be 542 nM. Turning to `C[C@@H]1O[C@@H](O[C@H]2C[C@@H](O)[C@]3(CO)[C@H]4[C@H](O)C[C@]5(C)[C@@H]([C@@H]6COC(=O)C6)CC[C@]5(O)[C@@H]4CC[C@]3(O)C2)[C@H](O)[C@H](O)[C@H]1O` [Dihydroouabain], the IC50 under setting [2] stood at 1540 nM. As for `CS(=O)(=O)CCCCN=C=S` [ERYSOLIN], the IC50 under setting [1] was determined as 3280 nM. Turning to `COc1cc([C@@H]2c3cc4c(cc3[C@@H](O[C@@H]3O[C@@H]5CO[C@@H](C)O[C@H]5[C@H](O)[C@H]3O)[C@H]3COC(=O)[C@H]23)OCO4)cc(OC)c1O` [Etoposide], the IC50 under setting [1] was found to be 694 nM. Regarding `CC(C)=CCC[C@]1(C)C=Cc2c(O)c3c(c(CC=C(C)C)c2O1)O[C@]12C(=C[C@@H]4C[C@H]1C(C)(C)O[C@@]2(C/C=C(/C)C(=O)O)C4=O)C3=O` [GAMBOGIC ACID], under setting [1], the concentration for half-maximal inhibition (IC50) was 1700 nM. Same read-out and setting: then `CC(=O)[C@]1(O)Cc2c(O)c3c(c(O)c2[C@@H](O[C@H]2C[C@H](N)[C@H](O)[C@H](C)O2)C1)C(=O)c1ccccc1C3=O` [Idarubicin], with 204 nM.

In the case of `Cc1cccc(CN2CCN(C(c3ccccc3)c3ccc(Cl)cc3)CC2)c1` (centres unmarked) [MECLIZINE HYDROCHLORIDE], the IC50 under setting [1] was 2540 nM. Regarding `CC[N+](CC)(CC)CCOc1ccc(/C=C/c2ccccc2)cc1` [MG 624], the 50% inhibitory concentration (IC50) under setting [1] was found to be 848 nM.

With `O=C1c2c(O)ccc(O)c2C(=O)c2c(NCCNCCO)ccc(NCCNCCO)c21` [MITOXANTHRONE HYDROCHLORIDE], the IC50 under setting [1] amounted to 60.5 nM. In the case of `C[C@@H]1O[C@@H](O[C@H]2C[C@@H](O)[C@]3(CO)[C@H]4[C@H](O)C[C@]5(C)[C@@H](C6=CC(=O)OC6)CC[C@]5(O)[C@@H]4CC[C@]3(O)C2)[C@H](O)[C@H](O)[C@H]1O` [Ouabain], the IC50 under setting [1] was determined as 123 nM. For `CO[C@H]1C[C@H](O[C@H]2CC[C@]3(C)[C@H]4CC[C@]5(C)[C@@H](C6=CC(=O)OC6)CC[C@]5(O)[C@@H]4CC[C@]3(O)C2)O[C@H](C)[C@H]1O` [PERIPLOCYMARIN], the IC50 under setting [1] was 2700 nM. Still for that read-out and setting: then `CO[C@H]1[C@H](O)[C@H](O[C@H]2CC[C@@]3(C=O)[C@H](CC[C@@H]4[C@@H]3CC[C@]3(C)[C@@H](C5=CC(=O)OC5)CC[C@]43O)C2)O[C@@H](C)[C@@H]1O` [PERUVOSIDE], with 222 nM; and `COc1cc([C@@H]2c3cc4c(cc3[C@H](O)[C@H]3COC(=O)[C@H]23)OCO4)cc(OC)c1OC` [Podophyllotoxin], with 135 nM. Still for that read-out and setting: then `CCN(CC)CCCC(C)Nc1c2ccc(Cl)cc2nc2ccc(OC)cc12` (centres unmarked) [Quinacrine dihydrochloride], with 2560 nM. As to `C[n+]1cc2c3c(ccc2c2ccc4cc5c(cc4c21)OCO5)OCO3` [Sanguinarine chloride], the IC50 under setting [3] came to 1800 nM.

As to `COc1cc([C@@H]2c3cc4c(cc3[C@@H](O[C@@H]3O[C@@H]5CO[C@@H](c6cccs6)O[C@H]5[C@H](O)[C@H]3O)[C@H]3COC(=O)[C@H]23)OCO4)cc(OC)c1O` [TENIPOSIDE], under setting [1], the half-maximal inhibitory concentration (IC50) stood at 706 nM.

`CC[C@]1(O)C[C@H]2CN(CCc3c([nH]c4ccccc34)[C@@](C(=O)OC)(c3cc4c(cc3OC)N(C=O)[C@H]3[C@@](O)(C(=O)OC)[C@H](OC(C)=O)[C@]5(CC)C=CCN6CC[C@]43[C@@H]65)C2)C1` [Vincristine sulfate]: under setting [1], the IC50 was determined as 62 nM. For the molecule `COc1cc([C@@H]2c3cc4c(c(O)c3C[C@H]3COC(=O)[C@@H]32)OCO4)cc(OC)c1OC` [beta-PELTATIN], the IC50 under setting [2] was found to be 1950 nM. Dequalinium analog. C-14 linker: the 50% inhibitory concentration (IC50) under setting [2] amounted to 1110 nM.

As to Vinblastine sulfate salt, the concentration for half-maximal inhibition (IC50) under setting [2] worked out at 113 nM.
